Where two headings read alike, the source gives them in different places.
Tests used:
[1] = cited from earlier work
[2] = system: plasma glucose; assay: Oral glucose tolerance test; design: AUCglu,0.5, GMR (90%CI), metformin vs baseline / AUCglu,3, GMR (90%CI), metformin vs baseline: unit not given beside the values
[3] = clinical; details: human
[4] = biological target: T1, MATE1 (Homo sapiens, UniProt Q96FL8); details: overexpressing cell line; Supplemental Fig. 4
[5] = clinical; details: human, plasma and urine, oral, 200 mg
[6] = system: creatinine plasma levels; details: with famotidine
[7] = cited from earlier work; remark: listed apart in the source
[8] = biological target: T2, OCT2 (Homo sapiens, UniProt O15244); details: overexpressing cell line; Supplemental Fig. 4
[9] = biological target: T3, MATE2 (Homo sapiens, UniProt Q86VL8); details: overexpressing cell line; Supplemental Fig. 4
[10] = system: creatinine (an endogenous substrate of MATE1); details: 12h after famotidine (200 mg) alone vs pre-famotidine
[11] = biological target: plasma membrane monoamine transporter (PMAT, SLC29A4) (Homo sapiens, UniProt Q7RTT9); details: Supplemental Fig. 7
[12] = Tolerability in the clinical study; details: twelve healthy volunteers; famotidine Cmax,u about 1.0 μM
[13] = biological target: T3, MATE2; assay: cell-based
[14] = biological target: T1, MATE1; assay: cell-based
[15] = biological target: T4, OCT1 (Homo sapiens, UniProt O15245); assay: cell-based
[16] = biological target: T4, OCT1; details: overexpressing cell line; Supplemental Fig. 4
[17] = cited from earlier work; remark: listed apart in the source
[18] = for Maximal concentration of unbound famotidine in plasma ([I], Cmax,u): healthy volunteers n=12, oral famotidine 160 to 200 mg doses
[19] = biological target: T1, MATE1; details: MATE1 vs OCT2
[20] = biological target: T2, OCT2; assay: cell-based
[21] = glucose AUC 0 to 0.5h after 75 g glucose, n=12
[22] = glucose AUC 0 to 3h after 75 g glucose, n=12
[23] = metformin vs baseline (no drug)
[24] = population PK model, twelve healthy volunteers

T1 sequence (Q96FL8 whole entry): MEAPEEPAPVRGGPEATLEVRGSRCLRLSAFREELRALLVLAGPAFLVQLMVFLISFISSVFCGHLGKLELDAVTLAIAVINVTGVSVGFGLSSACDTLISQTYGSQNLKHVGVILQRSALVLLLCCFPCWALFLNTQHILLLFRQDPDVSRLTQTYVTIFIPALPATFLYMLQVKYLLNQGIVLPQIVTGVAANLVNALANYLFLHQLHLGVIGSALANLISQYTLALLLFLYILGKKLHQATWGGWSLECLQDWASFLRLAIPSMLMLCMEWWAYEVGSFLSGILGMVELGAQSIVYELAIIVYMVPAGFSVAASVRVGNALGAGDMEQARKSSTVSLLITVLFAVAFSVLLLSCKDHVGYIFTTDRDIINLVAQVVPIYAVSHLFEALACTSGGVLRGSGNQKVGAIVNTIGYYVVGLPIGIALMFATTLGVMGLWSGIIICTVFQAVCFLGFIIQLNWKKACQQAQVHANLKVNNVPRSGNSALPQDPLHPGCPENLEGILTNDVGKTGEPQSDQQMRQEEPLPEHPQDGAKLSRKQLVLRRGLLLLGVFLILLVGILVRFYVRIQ
T3 sequence (Q86VL8 whole entry): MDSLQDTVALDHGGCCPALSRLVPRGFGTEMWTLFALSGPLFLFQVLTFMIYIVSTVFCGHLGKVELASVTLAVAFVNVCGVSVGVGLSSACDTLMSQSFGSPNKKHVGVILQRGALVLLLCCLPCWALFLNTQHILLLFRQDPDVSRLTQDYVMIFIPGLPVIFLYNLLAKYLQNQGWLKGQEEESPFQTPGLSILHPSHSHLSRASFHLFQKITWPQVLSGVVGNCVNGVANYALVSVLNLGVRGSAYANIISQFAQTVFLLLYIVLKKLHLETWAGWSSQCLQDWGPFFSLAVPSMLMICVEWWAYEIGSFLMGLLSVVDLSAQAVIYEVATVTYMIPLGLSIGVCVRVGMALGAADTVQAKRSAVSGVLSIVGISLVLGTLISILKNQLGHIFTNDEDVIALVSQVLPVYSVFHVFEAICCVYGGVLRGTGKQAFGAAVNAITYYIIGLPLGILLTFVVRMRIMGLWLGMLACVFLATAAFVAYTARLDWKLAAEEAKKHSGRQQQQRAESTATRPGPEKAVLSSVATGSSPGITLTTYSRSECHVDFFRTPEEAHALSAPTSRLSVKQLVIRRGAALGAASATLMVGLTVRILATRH
T4 sequence (O15245 whole entry): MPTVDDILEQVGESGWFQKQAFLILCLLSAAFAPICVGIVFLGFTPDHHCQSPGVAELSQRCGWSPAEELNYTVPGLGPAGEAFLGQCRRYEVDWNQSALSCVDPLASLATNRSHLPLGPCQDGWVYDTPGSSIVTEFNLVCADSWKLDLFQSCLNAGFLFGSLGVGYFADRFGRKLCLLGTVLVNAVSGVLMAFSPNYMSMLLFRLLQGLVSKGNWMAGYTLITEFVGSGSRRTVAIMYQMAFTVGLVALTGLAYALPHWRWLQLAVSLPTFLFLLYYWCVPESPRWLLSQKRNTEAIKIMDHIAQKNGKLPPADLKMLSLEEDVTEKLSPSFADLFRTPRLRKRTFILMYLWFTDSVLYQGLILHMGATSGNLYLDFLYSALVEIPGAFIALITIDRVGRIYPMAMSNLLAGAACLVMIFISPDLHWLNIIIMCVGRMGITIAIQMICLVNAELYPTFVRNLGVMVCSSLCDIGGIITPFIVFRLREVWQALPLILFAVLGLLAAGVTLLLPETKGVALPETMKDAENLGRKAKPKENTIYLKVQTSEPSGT
T2 sequence (O15244 whole entry): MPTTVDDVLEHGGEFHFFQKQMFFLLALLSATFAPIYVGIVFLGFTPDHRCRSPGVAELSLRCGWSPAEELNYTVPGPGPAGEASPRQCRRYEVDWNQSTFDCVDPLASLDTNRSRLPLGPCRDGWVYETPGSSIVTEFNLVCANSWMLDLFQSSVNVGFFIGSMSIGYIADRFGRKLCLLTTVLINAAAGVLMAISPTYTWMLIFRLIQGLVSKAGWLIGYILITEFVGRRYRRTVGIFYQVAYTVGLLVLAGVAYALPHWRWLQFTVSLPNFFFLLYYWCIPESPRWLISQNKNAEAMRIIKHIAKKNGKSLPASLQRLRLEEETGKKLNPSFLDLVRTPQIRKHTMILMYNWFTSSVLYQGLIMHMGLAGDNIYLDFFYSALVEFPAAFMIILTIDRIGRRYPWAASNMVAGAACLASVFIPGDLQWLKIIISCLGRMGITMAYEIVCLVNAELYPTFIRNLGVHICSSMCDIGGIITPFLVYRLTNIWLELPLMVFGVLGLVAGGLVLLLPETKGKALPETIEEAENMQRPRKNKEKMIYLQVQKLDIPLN
Sequence of plasma membrane monoamine transporter (PMAT, SLC29A4) (Q7RTT9 whole entry): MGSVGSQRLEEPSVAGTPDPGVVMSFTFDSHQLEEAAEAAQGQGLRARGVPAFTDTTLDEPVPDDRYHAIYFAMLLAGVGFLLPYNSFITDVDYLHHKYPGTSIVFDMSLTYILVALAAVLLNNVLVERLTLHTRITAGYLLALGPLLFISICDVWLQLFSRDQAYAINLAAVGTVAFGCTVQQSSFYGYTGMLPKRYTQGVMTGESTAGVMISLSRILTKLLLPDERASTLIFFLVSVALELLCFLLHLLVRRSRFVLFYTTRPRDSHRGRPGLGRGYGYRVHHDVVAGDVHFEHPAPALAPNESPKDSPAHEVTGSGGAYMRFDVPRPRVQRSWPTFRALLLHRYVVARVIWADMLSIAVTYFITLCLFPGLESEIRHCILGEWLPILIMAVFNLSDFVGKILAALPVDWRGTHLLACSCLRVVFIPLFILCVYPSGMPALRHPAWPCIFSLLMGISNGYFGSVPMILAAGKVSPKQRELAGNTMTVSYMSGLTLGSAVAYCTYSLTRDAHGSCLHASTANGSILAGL

CN(C)C(=N)N=C(N)N [Metformin, metformin]
Ionized in blood and in urine at physiologic pH [1]: > 99%
AUCglu,0.5, mean ± SEM [2, 21]: 55 ± 1.5 mg·h/dL
AUCglu,0.5, median [2, 21]: 55 mg·h/dL
AUCglu,3, mean ± SEM [2, 22]: 356 ± 14 mg·h/dL
AUCglu,3, median [2, 22]: 343 mg·h/dL
AUCglu,0.5, GMR (90%CI), metformin vs baseline [2, 23]: 0.94 (0.90–0.98)
AUCglu,3, GMR (90%CI), metformin vs baseline [2, 23]: 0.99 (0.94–1.04)
AUCglu,0.5, GMR (90%CI), metformin vs baseline ([2]; metformin vs baseline (no drug), listed as metformin): 0.94 [0.90–0.98]
CL renal ([3]; plasma and urine, oral): 767 ± 70 mL/min
AUC(0-inf) ([3]; plasma, oral): 14600 ng·h/mL
Tmax ([3]; plasma, po, 1850 mg): 2 ± 0.24 h

NC(N)=Nc1nc(CSCCC(N)=NS(N)(=O)=O)cs1 [Famotidine, famotidine]
Substrate of MATE1 [4]: unequivocal substrate
Effect of famotidine alone on glucose AUC ([2]; OGTT, data not shown): no significant effect
CL renal [5]: 290 ± 32 mL/min
BSV-Baseline, creatinine model (R.S.E.) [6]: 18 (19%)
BSV-Phase Shift, creatinine model (R.S.E.) [6]: 2.7 (89%)
Creatinine plasma Amplitude 1, typical value (R.S.E.) ([6]; diurnal rhythm model): 1.15 (49%) mg/L
Creatinine plasma Phase Shift 1, typical value (R.S.E.) ([6]; diurnal rhythm model): 2.37 (2.6%) mg/L
Creatinine plasma Baseline, typical value (R.S.E.) ([6]; twelve healthy volunteers): 8.07 (5.5%) mg/L
Eliminated by metabolic route [7]: 30–35%
Eliminated by renal route [7]: 65–70%
Substrate of OCT2 [8]: unequivocal substrate
Substrate of MATE2 [9]: unequivocal substrate
Creatinine concentrations in plasma [10]: significantly higher
Inhibition of metformin transport by PMAT [11]: potent inhibitor
Tolerability during co-administration with metformin [12]: well tolerated
IC50 [13]: 2.5 µM
IC50 [14]: 0.25 µM
IC50 [15]: 19 µM
Substrate of OCT1 [16]: unequivocal substrate
Bound to plasma proteins [17]: approximately 20%
Maximal concentration of unbound famotidine in plasma ([I], Cmax,u) [18]: 1000 nM
Maximal concentration of unbound famotidine in plasma ([I], Cmax,u) ([18]; listed as famotidine): 1000 ± 64 nM
BSV-CL (between subject variability) ([18]; population PK model, (R.S.E)): 6.4% (25%)
BSV-F (between subject variability) ([18]; population PK model, (R.S.E)): 26% (53%)
BSV-Lagtime (between subject variability) ([18]; population PK model, (R.S.E)): 77% (99%)
CL/F, population estimate (R.S.E) [18, 24]: 116 (7.2%) L/h
Lag time, population estimate (R.S.E) [18, 24]: 0.27 (32%) h
V/F, population estimate (R.S.E) [18, 24]: 715 (6.0%) L
ka, population estimate (R.S.E) [18, 24]: 1.14 (11%) h^−1
Selectivity of inhibition of metformin transport for MATE1 over OCT2 [19]: over 200 fold
IC50 [20]: 66 µM

From paper PMC4876051 (Clinical pharmacokinetics, 2016)
